Measurements from patent US5556858A, “Cis-2-[(4-heteroaryl-1-piperazinyl)alkyl] hexahydro-1H-isoindole-1,3 (2H)-diones and related compounds and their therapeutic utility” (Hoechst-Roussel Pharmaceuticals, Inc., priority 1995, dated 1996).
Where a name gives a salt, the structure may show the parent alone.

What follows are compounds tested on apomorphine climbing (assay: climbing mice assay (antipsychotic activity)). Settings: Mus musculus; ip; apomorphine 1.5 mg/kg subcutaneously; climbing score vs control.
Format: in vivo, mice (CK-1 male)
Method: Subject […] male mice (23-27 grams) are group-housed under standard laboratory conditions. The mice are individually placed in wire mesh stick cages (4"×10") and are allowed one hour for adaption and exploration of the new environment.
For evaluation of climbing, 3 readings are taken at 10, 20, and 30 minutes-after apomorphine administration according to the following scale: […]
Mice consistently climbing before the injection of apomorphine are discarded.
With full-developed apomorphine climbing, the animals are hanging on to the cage walls, rather motionless, over long periods of time. By contrast, climbs due to mere motor stimulation usually only last a few seconds.
The climbing scores are individually totaled (maximal score: 6 per mouse over 3 readings) and the total score of the control group (vehicle intraperitoneally-apomorphine subcutaneously) is set to 100%.

SMILES | ED50 [mg/kg]
O=C(CN1CCC(c2noc3cc(F)ccc23)CC1)N1CCc2ccccc2C1 [1-(1,2,3,4-Tetrahydro-1H-isoquinolin-2-yl)-2-[4-(6-fluoro-1,2-benzosoxazol-3-yl)-1-piperidinyl]-ethanone hydrochloride ethanolate] | 6.25
Cl.Cl.NCCCN1CCC(c2noc3cc(F)ccc23)CC1 [1-(3-Aminopropyl)-4-(6-fluoro-1,2-benzisoxazol-3-yl)piperidine dihydrochloride] | 22.6
CC(=O)c1ccc(CCCCN2CCC(c3noc4cc(F)ccc34)CC2)cc1 [1-[4-(4'-Acetophenyl)butyl]-4-(6-fluoro-1,2-benzisoxazol-3-yl)piperidine] | 0.34
COc1cc(C(C)=O)ccc1OCCCN1CCC(c2nsc3cc(F)ccc23)CC1.Cl [1-[4-[3-[4-(6-Fluoro-1,2-benzisothiazol-3-yl)-1-piperidinyl]propoxy]-3-methoxy-phenyl]ethanone hydrochloride] | 0.16
COc1cc(C(C)=O)ccc1OCCCCN1CCC(c2noc3ccccc23)CC1 [1-[4-[4-[4-(1,2-Benzisoxazol-3-yl)-1-piperidinyl]butoxy]-3-methoxyphenyl]ethanone] | 1.6
COc1cc(C(C)=O)ccc1OCCCCN1CCC(c2noc3cc(F)ccc23)CC1 [1-[4-[4-[4-(6-Fluoro-1,2-benzisoxazol-3-yl)-1-piperidinyl]butoxy]-3-methoxyphenyl]ethanone] | 0.68
C=C1c2ccccc2C(=O)N1CCN1CCC(c2noc3cc(F)ccc23)CC1.Cl [2,3-Dihydro-2-[2-[4-(6-fluoro-1,2-benzisoxazol-3-yl)-1-piperidinyl]ethyl]-3-methylene-1H-isoindol-1-one hydrochloride] | 0.64
O=C1c2ccccc2CN1CCN1CCC(c2noc3cc(F)ccc23)CC1 [2,3-dihydro-2-[2-[4-(6-Fluoro-1,2-benzisoxazol-3-yl)-1-piperidinyl]ethyl]-1H-isoindol-1-one] | 1.9
CC1c2ccccc2C(=O)N1CCN1CCC(c2noc3cc(F)ccc23)CC1 (stereo not drawn) [2-[2-[4-(6-Fluoro-1,2-benzisoxazol-3-yl)-1-piperidinylethyl]-2,3-dihydro-3-methyl-1H-isoindol-1-one hydrochloride] | 1.17
O=C1c2ccccc2C(O)N1CCN1CCN(c2n[nH]c3cc(F)ccc23)CC1 (stereo not drawn) [2-[2-[4-(6-Fluoro-1H-indazol-3-yl)-1-piperazinyl]ethyl-2,3-dihydro-3-hydroxy-1H-isoindol-1-one hemifumarate] | 2.2
O=C(CN1CCC(c2noc3cc(F)ccc23)CC1)N1Cc2ccccc2C1.O=C(O)/C=C/C(=O)O [2-[4-(6-Fluoro-1,2-benzisoxazol-3-yl)-1-piperidinyl]-1-(2,3-dihydro-1H-isoindol-2-yl)ethanone fumarate] | 2.33
Fc1ccc2c(C3CCN(CCC4COc5ccccc5O4)CC3)noc2c1 (stereo not drawn) [2-[4-(6-fluoro-1,2-benzisoxazol-3-yl)-1-piperidinyl]-ethyl]-1,4-benzodioxan] | 0.29
Cc1nc2ccccc2c(=O)n1CCN1CCC(c2noc3cc(F)ccc23)CC1 [3-[2-[4-(6-Fluoro-1,2-benzisoxazol-3-yl)-1-piperidinyl]ethyl]-2-methyl-3H-quinazolin-4-one] | 0.61
Fc1ccc2c(c1)CN(CCN1CCN(c3n[nH]c4ccccc34)CC1)C2.O=C(O)/C=C\C(=O)O.O=C(O)/C=C\C(=O)O [4-(1H-indazol-3-yl)-1-[2-(2,3-dihydro-5-fluoro-1H-isoindol-2-yl)ethyl]piperazine dimaleate] | 1.32
Cl.Cl.Fc1ccc2c(C3CCN(CCN4Cc5ccccc5C4)CC3)noc2c1 [4-(6-Fluoro-1,2-benzisoxazol-3-yl)-1-[2-(2,3-dihydro-1H-isoindol-2-yl)ethyl]-piperidine dihydrochloride] | 0.36
Cc1cccc2c1CN(CCN1CCN(c3n[nH]c4cc(F)ccc34)CC1)C2 [4-(6-Fluoro-1H-indazol-3,yl)-1-[2-(2.3-dihydro-4-methyl-1H-isoindol-2-yl)ethyl]piperazine difumarate] | 0.35
Fc1ccc2c(N3CCN(CCN4Cc5ccccc5C4)CC3)n[nH]c2c1.O=C(O)/C=C\C(=O)O.O=C(O)/C=C\C(=O)O [4-(6-Fluoro-1H-indazol-3-yl)-1-[2-(2,3-dihydro-1H-isoindol-2-yl)-ethyl]piperazine dimaleate] | 0.25
Fc1ccc2c(c1)CN(CCN1CCN(c3n[nH]c4cc(F)ccc34)CC1)C2.O=C(O)/C=C\C(=O)O.O=C(O)/C=C\C(=O)O [4-(6-Fluoro-1H-indazol-3-yl)-1-[2-(5-fluoro-2,3-dihydro-1H-isoindol-2-yl)-ethyl]piperazine dimaleate] | 0.16
Fc1ccc2c(c1)CN(CCN1CCC(c3n[nH]c4cc(F)ccc34)CC1)C2.O=C(O)/C=C\C(=O)O.O=C(O)/C=C\C(=O)O [4-(6-Fluoro-1H-indazol-3-yl)-1-[2-(5-fluoro-2,3-dihydro-1H-isoindol-2-yl)ethyl]piperidine dimaleate] | 0.27

SMILES | ED50 [mg/kg]
Fc1ccc2c(N3CCN(CCCN4Cc5ccccc5C4)CC3)n[nH]c2c1 [4-(6-Fluoro-1H-indazol-3-yl)-1-[3-(2.3-dihydro-1H-isoindol-2-yl)propyl]-piperazine dimaleate] | 0.46
Cc1ccc2c(c1)CN(CCN1CCN(c3n[nH]c4cc(F)ccc34)CC1)C2 [4-(Fluoro-1H-indazol-3-yl)-1-[2-(2,3-dihydro-5-methyl-1H-isoindol-2-yl)-ethyl]piperazine difumarate] | 0.17
CCCCCCCCCC(=O)OCCCCN1CCC(c2noc3cc(F)ccc23)CC1.O=C(O)/C=C/C(=O)O [4-[4-(6-Fluoro-1,2-benzisoxazol-3-yl)-1-piperidinyl]butyl decanoate fumarate] | 3.31
OCCCN1CCC(c2noc3cc(F)ccc23)CC1 [6-Fluoro-3-[1-(3-hydroxypropyl)-4-piperidinyl]-1,2-benzisoxazole] | 4.1
Fc1ccc2c(C3CCN(CCCOc4cccc5cnccc45)CC3)noc2c1 [6-Fluoro-3-[1-[3-[(isoquinol-5-yl)oxylpropyl]-4-piperidinyl]-1,2-benzisoxazole sesquifumarate] | 0.172
COc1cc(C(C)=O)ccc1OC/C=C\CN1CCC(c2noc3cc(F)ccc23)CC1 [(Z)-1-[4-[[4-[4-(6-fluoro-1,2-benzisoxazol-3-yl)-1-piperidinyl]-2-butenyl]oxy]-3-methoxy-phenyl]ethanone] | 0.61
Fc1ccc2c(C3CCN(CCN4CCc5ccccc5C4)CC3)noc2c1 [N-12-[4-(6-Fluoro-1,2-benzisoxazol-3-yl)-1-piperidinyl]ethyl-1,2,3,4-tetrahydroisoquinoline difumarate] | 0.23
Cl.O=C1c2ccccc2C(=O)N1CCN1CCC(c2nsc3cc(F)ccc23)CC1 [N-[2-[4-(6-Fluoro-1,2-benzisothiazol-3-yl)-1-piperidinyl]ethyl]phthalimide hydrochloride] | 0.38
Fc1ccc2c(C3CCN(CCN4CCCc5ccccc54)CC3)noc2c1.O=C(O)/C=C/C(=O)O [N-[2-[4-(6-Fluoro-1,2-benzisoxazol-3-yl)-1-piperidinyl]ethyl]-1,2,3,4-tetrahydroquinoline fumarate] | 1.19
O=C1c2c(F)ccc(F)c2C(=O)N1CCN1CCC(c2noc3cc(F)ccc23)CC1 [N-[2-[4-(6-Fluoro-1,2-benzisoxazol-3-yl)-1-piperidinyl]ethyl]-3,6-difluorophthalimide] | 2.9
Nc1ccc2c(c1)C(=O)N(CCN1CCC(c3noc4cc(F)ccc34)CC1)C2=O.O=C(O)/C=C/C(=O)O [N-[2-[4-(6-Fluoro-1,2-benzisoxazol-3-yl)-1-piperidinyl]ethyl]-4-aminophthalimide fumarate] | 0.097
Cl.O=C1c2ccc(O)cc2C(=O)N1CCN1CCC(c2noc3cc(F)ccc23)CC1 [N-[2-[4-(6-Fluoro-1,2-benzisoxazol-3-yl)-1-piperidinyl]ethyl]-4-hydroxyphthalimide hydrochloride] | 1.6
Cl.O=C1c2ccccc2C(=O)N1CCN1CCC(c2noc3cc(F)ccc23)CC1 [N-[2-[4-(6-Fluoro-1,2-benzisoxazol-3-yl)-1-piperidinyl]ethyl]phthalimide h ydrochloride] | 0.48
O=C1c2ccccc2C(=O)N1CCN1CCC(c2noc3cc(F)ccc23)CC1 [N-[2-[4-(6-Fluoro-1,2-benzisoxazol-3-yl)-1-piperidinyl]ethyl]phthalimide] | 5
Cc1ccc2c(c1)C(=O)N(CCN1CCN(c3n[nH]c4cc(F)ccc34)CC1)C2=O [N-[2-[4-(6-Fluoro-1H-indazol-3-yl)-1-piperazinyl]ethyl]-4-methylphthalimidedihydrochloride] | 0.37
Fc1ccc2c(C3CCN(CCN4CCc5ccccc5C4)CC3)n[nH]c2c1.O=C(O)/C=C\C(=O)O.O=C(O)/C=C\C(=O)O [N-[2-[4-(6-Fluoro-1H-indazol-3-yl)-1-piperidinyl]ethyl]-1,2,3,4-tetrahydroisoquinoline dimaleate] | 0.44
Cl.O=C1c2ccccc2C(=O)N1CCN1CCC(c2n[nH]c3cc(F)ccc23)CC1 [N-[2-[4-(6-Fluoro-1H-indazol-3-yl)-1-piperidinyl]ethyl]phthalimide hydrochloride] | 0.8
O=C1c2ccccc2C(=O)N1CCN1CCN(c2n[nH]c3cc(F)ccc23)CC1 [N-[2-[4-(6-Fluoro-1H-indazol-3.-yl)-1-piperazinyl]ethyl]phthalimide] | 1.2
COc1cccc2c1C(=O)N(CCN1CCC(c3noc4cc(F)ccc34)CC1)C2=O [N-[2-[4-(6-fluoro-1,2-benzisoxazol-3-yl)-1-piperidinyl]ethyl]-3-methoxyphthalimide] | 0.16

Same assay, conditions: ip; apomorphine 1.5 mg/kg subcutaneously; climbing score vs control

SMILES | CLIMBING MOUSE ASSAY ED50 [mg/kg]
CC(CCN1C(=O)c2ccccc2C1=O)N1CCC(c2noc3cc(F)ccc23)CC1.Cl (stereo not drawn) [N,[3-[4-(6-Fluoro-1,2-benzisoxazol-3-yl)-1-piperidinyl]butyl]phthalimide hydrochloride] | 0.7
